Results from patent US20260007133A1, “HERBICIDAL COMPOSITION COMPRISING AZINE COMPOUNDS” (BASF SE, priority 2022, published 2026).
Read-outs that look alike come from different tables or passages of the source.

Assays:
Type in all cases: in vivo
Lolium multiflorum = assay: Greenhouse pre-emergence (PRE) herbicidal test on LOLMU; conditions: Lolium multiflorum, pre-emergence; for inhibition at 2 g/ha: use rate 2 gai/ha; for inhibition at 8 g/ha: use rate 8 gai/ha
Method in brief: (§1)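 Pre-emergence greenhouse assay: sown loamy-sand pots (humus approx. 3.0%) were kept under transparent hoods until rooting, then grown at species-appropriate 10-25° C or 20-35° C. Response ratings of 0 (no damage) to 100 (no plants emerged) were recorded 20 days after application.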

Brachiaria decumbens = assay: Greenhouse pre-emergence (PRE) herbicidal test on BRADC; conditions: Urochloa decumbens, use rate 8 gai/ha
Method in brief: (§2)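 Herbicidal effect is scored from 0 (no damage) to 100 (no emergence or above-ground parts destroyed), 20 days after treatment. Application is pre-emergent onto sown pots, with components given as a 5% by weight emulsion concentrate in the spray liquor.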

Digitaria sanguinalis = assay: Greenhouse post-emergence (POST) herbicidal test on DIGSA; conditions: Digitaria sanguinalis, post-emergence, POST
Method in brief: (§3)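 For this test, compounds formulated as a 5% by weight emulsion concentrate were diluted into spray liquor and applied post-emergence. Species were kept at 10-25° C or 20-35° C and injury was scored at 20 DAT on a 0–100 scale.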

Commelina benghalensis = assay: Greenhouse pre-emergence (PRE) herbicidal test on COMBE
Method in brief: as §1

Echinochloa crus-galli [1] = assay: Greenhouse post-emergence (POST) herbicidal test on ECHCG; conditions: Echinochloa crus-galli, post-emergence; for inhibition at 4 g/ha: use rate 4 gai/ha
Method in brief: as §3

Abutilon theophrasti = assay: Greenhouse pre-emergence (PRE) herbicidal test on ABUTH; conditions: Abutilon theophrasti, pre-emergence
Method in brief: as §1

Galium aparine = assay: Greenhouse pre-emergence (PRE) herbicidal test on GALAP; conditions: Galium aparine, pre-emergence; PRE; GALAP; use rate 8 gai/ha
Method in brief: as §2

Echinochloa crus-galli [2] = assay: Greenhouse pre-emergence (PRE) herbicidal test on ECHCG; conditions: Echinochloa crus-galli, pre-emergence, PRE
[3] = 480 h, PRE, 20 DAT, read-out: % activity
[4] = PRE, LOLMU, read-out: % activity

SMILES: COc1c(Br)cc(F)c(F)c1Nc1nc(N)nc(C(C)(C)F)n1 [Compound I-2]
- inhibition at 2 g/ha (Lolium multiflorum; 480 h, PRE, LOLMU, 20 DAT, read-out: solo application % activity): 15%
- inhibition at 2 g/ha (Lolium multiflorum; [3]): 20%
- inhibition at 8 g/ha (Lolium multiflorum; [3]): 85%
- inhibition at 2 g/ha (Lolium multiflorum; LOLMU PRE, read-out: % activity): 35%
- inhibition at 2 g/ha (Lolium multiflorum; [4]): 40%
- inhibition at 8 g/ha (Lolium multiflorum; [4]): 60%
- inhibition at 8 g/ha (Brachiaria decumbens; BRADC PRE): 80%
- inhibition at 8 g/ha (Brachiaria decumbens; PRE, BRADC): 70%
- pest or weed control at 2 g/ha (Digitaria sanguinalis; 432 h, DIGSA, I-2 solo 2 gai/ha, 18 DAT): 0%
- pest or weed control at 8 g/ha (Digitaria sanguinalis; 480 h, 8 gai/ha, 20 DAT): 65%
- inhibition at 2 g/ha (Digitaria sanguinalis; 480 h, DIGSA, 2 gai/ha, 20 DAT, read-out: % activity solo application): 0%
- inhibition at 8 g/ha (Digitaria sanguinalis; 480 h, DIGSA, 8 gai/ha, 20 DAT, read-out: % activity solo application): 20%
- inhibition at 2 g/ha (Digitaria sanguinalis; 480 h, DIGSA, use rate 2 gai/ha, 20 DAT, read-out: solo application % activity): 0%
- inhibition at 8 g/ha (Digitaria sanguinalis; 480 h, DIGSA, use rate 8 gai/ha, 20 DAT, read-out: solo application % activity): 20%
- pest or weed control at 8 g/ha (Commelina benghalensis; Commelina benghalensis, pre-emergence, 432 h, PRE, COMBE, I-2 solo 8 gai/ha, 18 DAT): 25%
- inhibition at 2 g/ha (Commelina benghalensis; Commelina benghalensis, pre-emergence, 480 h, COMBE PRE, 20 DAT, use rate 2 gai/ha, read-out: % activity): 20%
- inhibition at 8 g/ha (Commelina benghalensis; Commelina benghalensis, pre-emergence, 480 h, COMBE PRE, 20 DAT, use rate 8 gai/ha, read-out: % activity): 60%
- inhibition at 2 g/ha (Commelina benghalensis; Commelina benghalensis, pre-emergence, 480 h, PRE, COMBE, 2 gai/ha, 20 DAT, read-out: % activity solo application): 10%
- inhibition at 8 g/ha (Commelina benghalensis; Commelina benghalensis, pre-emergence, 480 h, PRE, COMBE, 8 gai/ha, 20 DAT, read-out: % activity solo application): 45%
- inhibition at 8 g/ha (Commelina benghalensis; Commelina benghalensis, pre-emergence, 480 h, PRE, COMBE, use rate 8 gai/ha, 20 DAT, read-out: solo application % activity): 45%
- inhibition at 8 g/ha (Commelina benghalensis; Commelina benghalensis, pre-emergence, COMBE PRE, use rate 8 gai/ha, read-out: % activity): 25%
- inhibition at 4 g/ha (Commelina benghalensis; Commelina benghalensis, pre-emergence, PRE, COMBE, use rate 4 gai/ha): 10%
- % activity (Commelina benghalensis; PRE, COMBE, use rate 4 gai/ha): 15%
- pest or weed control at 2 g/ha (Echinochloa crus-galli [1]; 432 h, POST, ECHCG, I-2 solo 2 gai/ha, 18 DAT): 0%
- pest or weed control at 8 g/ha (Echinochloa crus-galli [1]; 432 h, POST, ECHCG, I-2 solo 8 gai/ha, 18 DAT): 15%
- inhibition at 2 g/ha (Echinochloa crus-galli [1]; 480 h, ECHCG POST, 20 DAT, use rate 2 gai/ha, read-out: % activity): 0%
- inhibition at 4 g/ha (Echinochloa crus-galli [1]; 480 h, POST, ECHCG, 20 DAT): 0%
- inhibition at 4 g/ha (Echinochloa crus-galli [1]; POST, ECHCG): 25%
- pest or weed control at 2 g/ha (Abutilon theophrasti; 432 h, PRE, ABUTH, I-2 solo 2 gai/ha, 18 DAT): 30%
- pest or weed control at 8 g/ha (Abutilon theophrasti; 432 h, PRE, ABUTH, I-2 solo 8 gai/ha, 18 DAT): 50%
- inhibition at 8 g/ha (Abutilon theophrasti; 480 h, ABUTH PRE, 20 DAT, use rate 8 gai/ha, read-out: % activity): 65%
- pest or weed control at 2 g/ha (Abutilon theophrasti; 480 h, PRE, 2 gai/ha, 20 DAT): 10%
- pest or weed control at 8 g/ha (Abutilon theophrasti; 480 h, PRE, 8 gai/ha, 20 DAT): 65%
- inhibition at 2 g/ha (Abutilon theophrasti; 480 h, PRE, ABUTH, 2 gai/ha, 20 DAT, read-out: % activity solo application): 10%
- inhibition at 8 g/ha (Abutilon theophrasti; 480 h, PRE, ABUTH, 8 gai/ha, 20 DAT, read-out: % activity solo application): 55%
- inhibition at 8 g/ha (Abutilon theophrasti; 480 h, PRE, ABUTH, use rate 8 gai/ha, 20 DAT, read-out: solo application % activity): 55%
- inhibition at 2 g/ha (Abutilon theophrasti; ABUTH PRE, use rate 2 gai/ha, read-out: % activity): 20%
- inhibition at 2 g/ha (Abutilon theophrasti; PRE, ABUTH, use rate 2 gai/ha, read-out: % activity): 20%
- inhibition at 8 g/ha (Galium aparine): 15%
- inhibition at 4 g/ha (Echinochloa crus-galli [2]; 240 h, use rate 4 gai/ha, 10 DAT): 20%
- inhibition at 8 g/ha (Echinochloa crus-galli [2]; 240 h, use rate 8 gai/ha, 10 DAT, read-out: % activity): 20%
- inhibition at 16 g/ha (Echinochloa crus-galli [2]; 240 h, use rate 16 gai/ha, 10 DAT): 25%
- pest or weed control at 2 g/ha (Echinochloa crus-galli [2]; 432 h, ECHCG, I-2 solo 2 gai/ha, 18 DAT): 10%
- pest or weed control at 8 g/ha (Echinochloa crus-galli [2]; 432 h, ECHCG, I-2 solo 8 gai/ha, 18 DAT): 25%
- inhibition at 2 g/ha (Echinochloa crus-galli [2]; 480 h, ECHCG, 2 gai/ha, 20 DAT, read-out: % activity solo application): 0%
- inhibition at 8 g/ha (Echinochloa crus-galli [2]; 480 h, ECHCG, 8 gai/ha, 20 DAT, read-out: % activity solo application): 90%
- inhibition at 2 g/ha (Echinochloa crus-galli [2]; 480 h, ECHCG, use rate 2 gai/ha, 20 DAT, read-out: solo application % activity): 0%
- inhibition at 8 g/ha (Echinochloa crus-galli [2]; 480 h, ECHCG, use rate 8 gai/ha, 20 DAT, read-out: solo application % activity): 90%
- pest or weed control at 2 g/ha (Echinochloa crus-galli [2]; 480 h, 2 gai/ha, 20 DAT): 55%
